Common to all, as to assay: NCI tumour cell line growth inhibition, 48 h
The test system of test [1] is HCT-15 colon.
Test [2] concerns HOP-62 NSCLC.
The test system of test [3] is LOX IMVI melanoma.
Test [4] relates to NCI/ADR-RES ovarian.
Test [5] has as its system OVCAR-4 ovarian.
For test [6], the system named is RPMI-8226 leukemia.
The subject of test [7] is SF-295 CNS.
In test [8] the test system is SK-MEL-2 melanoma.
Test [9] concerns SK-MEL-28 melanoma.
The subject of test [10] is SN12C renal.

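1) Cells in 96-well plates. 2) Compound, 48 h, 5 concentrations. 3) Linear interpolation between surrounding doses. 4) Unreached endpoint = highest concentration. The concentration for 50% growth inhibition is given as GI50. TGI: concentration producing complete growth inhibition.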

For `Oc1ccc(Cl)cc1CNc1nc2ccccc2[nH]1`, the GI50 in [1] was 11500 nM; in test [2] it was 11800 nM; in test [3] it was 13700 nM; in [4] it was 11500 nM; in [5], 11400 nM; in test [6] it was 10000 nM. In addition, the GI50 in test [7] is 12900 nM; in test [8], 15900 nM; in test [9], 13600 nM; in test [10], 13700 nM. Also, the TGI in test [1] was determined as 26.1 µM; in test [2], 27.2 µM; in [3], 28.8 µM; in test [4], 37.8 µM; in test [5], 37.5 µM; in test [6] it was 49.5 µM. The TGI in test [7] is 27.5 µM; in test [8], 33 µM; in [9], 27.9 µM; in test [10], 29.4 µM.

With `O=C(Nc1ccc(I)cc1F)c1cc(Cl)ccc1O`, the GI50 is 554 nM in test [1]; 2210 nM in test [2]; 424 nM in test [3]; 400 nM in test [4]; 356 nM in [5]; 280 nM in [6]. For the same compound, the GI50 is 1750 nM in test [7], 358 nM in test [8], 353 nM in test [9] and 365 nM in test [10]. For the same compound, the TGI in test [1] came out at 10.7 µM; in test [2] it was 8 µM; in [3] it was 2.18 µM; in [4], 3.54 µM; in test [5], 6.4 µM; in [6], 1.28 µM. Further, the TGI in test [7] was determined as 3.49 µM; in test [8], 1.99 µM; in test [9], 1.71 µM; in [10], 4.47 µM.

`CC(C)COC(=O)c1ccc2[nH]c(O)c(C=Nc3ccc(S(N)(=O)=O)cc3)c2c1`: the GI50 in test [1] is 5900 nM; in [2], 1580 nM; in test [3] it was 666 nM; in test [4], 5360 nM; in test [5], 2390 nM; in test [6] it was 2550 nM. The GI50 is 1770 nM in test [7], 1730 nM in test [8], 1690 nM in test [9] and 1210 nM in test [10]. For the same compound, the TGI in test [1] is 25 µM; in test [2], 4.84 µM; in [3], 4.06 µM; in test [4], 21.2 µM; in test [5], 7.79 µM; in test [6], 18.8 µM. Further, the TGI in [7] came out at 8.46 µM; in [8], 4.19 µM; in [9] it was 4.75 µM; in test [10], 7.94 µM.

Turning to `COc1ccc(C2=CC(c3ccc(OC)c(OC)c3)c3c(c4ccccc4oc3=O)O2)cc1OC` (stereo unspecified), the GI50 was 1580 nM in test [1]; 2200 nM in [2]; 4220 nM in test [3]; 545 nM in test [4]; 3850 nM in test [5]; 1320 nM in [6]. The results for the GI50 in [7], in test [8] and in test [10] were 442 nM, 12200 nM and 4390 nM, respectively. Moreover, the TGI in test [1] is over 100 µM; in [2], over 100 µM; in [3] it was over 100 µM; in test [5], over 100 µM; in test [6], 16.7 µM; in test [7], over 100 µM. Besides, the TGI in test [8], in [9] and in test [10] was over 100 µM in each case.

Regarding `Cc1cccc(Nc2cnc(N)nc2N)c1`, the TGI in test [1], in test [2], in test [3], in [4], in [5] and in test [6] was over 100 µM in each case. The TGI in test [7], in test [8], in test [9] and in test [10] was over 100 µM throughout.

As for `CO[C@H]1CC(c2ccc[nH]2)=N[C@]12O[C@@H](C)C[C@@H]1CCCCCCCc3ccc([nH]3)[C@H]12`, the GI50 was 851 nM in [1]; 1350 nM in [2]; 520 nM in [3]; 1100 nM in test [4]; 508 nM in test [5]; 693 nM in [6]. Besides, the GI50 in [7] was 1390 nM; in [8], 1030 nM; in [9], 1920 nM; in [10], 1490 nM. Further, the TGI stood at 8.51 µM in [1]; 14.9 µM in test [2]; 1.26 µM in test [3]; 9.9 µM in [4]; 22.2 µM in [5]; 2.96 µM in test [6]. Besides, the TGI is 7.92 µM in [7], 4.21 µM in test [8], 8.26 µM in test [9] and 18.9 µM in [10].

Consider `Clc1nc(Cl)c2ncn(Cc3ccc(Cn4cnc5c(Cl)nc(Cl)nc54)cc3)c2n1`, for which the GI50 in [1] is 6240 nM; in [2], 6730 nM; in [3], 960 nM; in test [4], 7640 nM; in test [5] it was 13600 nM; in test [7] it was 7680 nM. Also, the GI50 is 10800 nM in [8] and 12100 nM in test [10]. Besides, the TGI in test [1] turned out to be 19.3 µM; in [2], 21.5 µM; in test [3], 14.9 µM; in test [4] it was 28.8 µM; in test [5], 28.6 µM; in test [6], 7.07 µM. Further, the TGI in test [7] worked out at 48.2 µM; in test [8], 34.9 µM; in test [9], 28.3 µM; in test [10] it was 32.4 µM.

With `CCn1c2ccccc2c2cc(C(O)c3cccc4ncccc34)ccc21` (stereo unspecified), the GI50 was 40.9 nM in [1]; 50.7 nM in test [2]; 63.1 nM in test [3]; 39.6 nM in test [4]; 318 nM in test [5]; 72.4 nM in test [6]. Moreover, the GI50 was 33.5 nM in test [7], 54.3 nM in [8], 3470 nM in test [9] and 59.1 nM in [10]. Besides, the TGI in test [1] was 12.1 µM; in test [2] it was over 73.3 µM; in test [3] it was 13.4 µM; in test [4], 13.7 µM; in test [5], 87.3 µM; in test [6], 7.85 µM. Moreover, the TGI in test [7] is 22.1 µM; in [8], 39.4 µM; in [9] it was over 100 µM; in test [10] it was 6.24 µM.
